Source: US11111220B2, “Propanamine derivatives for treating pain and pain related conditions” (ESTEVE PHARMACEUTICALS, S.A., priority 2017, dated 2021)

These compounds were tested against Human α2δ-1 Subunit of Cav2.2 Calcium Channel (Homo sapiens, UniProt P54289) (assay: Binding assay to human α2δ-1 subunit of Cav2.2 calcium channel ([3H]-Gabapentin)). Settings: Table 1; human α2δ-1 enriched membranes, 15 nM [3H]-Gabapentin; read-out: Ki(nM) alpha2delta Hum.
Experimental: Binding Assay to Human α2δ-1 Subunit of Cav2.2 Calcium Channel.
Human α2δ-1 enriched membranes (2.5 μg) were incubated with 15 nM of radiolabeled [3H]-Gabapentin in assay buffer containing Hepes-KOH 10 mM, pH 7.4.
NSB (non specific binding) was measured by adding 10 μM pregabalin. The binding of the test compound was measured in five different concentrations. After 60 min incubation at 27° C., binding reaction was terminated by filtering through Multiscreen GF/C (Millipore) presoaked in 0.5% polyethyleneimine in Vacuum Manifold Station, followed by 3 washes with ice-cold filtration buffer containing 50 mM Tris-HCl, pH 7.4.
Filter plates were dried at 60° C. for 1 hour and 30 μl of scintillation cocktail were added to each well before radioactivity reading.
Readings were performed in a Trilux 1450 Microbeta radioactive counter (Perkin Elmer).

Sequence of Human α2δ-1 Subunit of Cav2.2 Calcium Channel (P54289 25-1103): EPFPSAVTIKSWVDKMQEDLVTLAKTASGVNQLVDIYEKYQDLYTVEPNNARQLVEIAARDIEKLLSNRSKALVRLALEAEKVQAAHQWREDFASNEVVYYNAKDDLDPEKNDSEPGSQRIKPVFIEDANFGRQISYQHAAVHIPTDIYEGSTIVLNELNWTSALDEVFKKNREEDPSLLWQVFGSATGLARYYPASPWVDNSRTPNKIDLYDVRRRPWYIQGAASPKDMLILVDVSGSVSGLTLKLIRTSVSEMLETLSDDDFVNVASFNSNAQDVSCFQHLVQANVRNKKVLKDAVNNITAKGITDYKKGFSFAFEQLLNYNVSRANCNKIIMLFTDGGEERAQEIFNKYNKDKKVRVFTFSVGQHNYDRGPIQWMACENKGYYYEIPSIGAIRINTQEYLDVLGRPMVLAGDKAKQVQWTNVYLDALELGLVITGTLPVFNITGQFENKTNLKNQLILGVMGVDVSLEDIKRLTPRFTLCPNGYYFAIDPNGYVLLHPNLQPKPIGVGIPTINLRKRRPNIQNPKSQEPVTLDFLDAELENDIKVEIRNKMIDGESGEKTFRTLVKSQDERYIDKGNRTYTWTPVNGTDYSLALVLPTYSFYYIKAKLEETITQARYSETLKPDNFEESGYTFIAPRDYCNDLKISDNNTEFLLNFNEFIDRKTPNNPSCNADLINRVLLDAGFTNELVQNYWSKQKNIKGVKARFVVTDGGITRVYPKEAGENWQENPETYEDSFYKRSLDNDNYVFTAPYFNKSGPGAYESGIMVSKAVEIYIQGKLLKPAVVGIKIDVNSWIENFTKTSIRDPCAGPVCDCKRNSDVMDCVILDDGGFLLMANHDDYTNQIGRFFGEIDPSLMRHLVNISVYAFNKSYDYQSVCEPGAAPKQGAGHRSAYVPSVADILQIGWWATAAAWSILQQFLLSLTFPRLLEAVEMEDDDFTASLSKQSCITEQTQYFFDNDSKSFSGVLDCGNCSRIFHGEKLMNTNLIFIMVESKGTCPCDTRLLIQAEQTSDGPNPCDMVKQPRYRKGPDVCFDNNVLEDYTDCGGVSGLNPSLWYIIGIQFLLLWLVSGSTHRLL

Structure (SMILES) | Ki
CCN(Cc1ccccc1)Cc1cccc(OC(CCNC)c2cccs2)c1 (centres unmarked) [Example 1, 3-(3-((Benzyl(ethyl)amino)methyl)phenoxy)-N-methyl-3-(thiophen-2-yl)propan-1-amine] | 100 to 500 nM
CNCCC(Oc1cccc(CNC)c1)c1cccs1 (centres unmarked) [Example 3, N-methyl-3-(3-((methylamino)methyl)phenoxy)-3-(thiophen-2-yl)propan-1-amine] | 100 to 500 nM
CNCCC(Oc1cccc(CN(C)C)c1)c1cccs1 (centres unmarked) [Example 4, 3-(3-((Dimethylamino)methyl)phenoxy)-N-methyl-3-(thiophen-2-yl)propan-1-amine] | 100 to 500 nM
CCNCc1cccc(OC(CCNC)c2cccs2)c1 (centres unmarked) [Example 5, 3-(3-((Ethylamino)methyl)phenoxy)-N-methyl-3-(thiophen-2-yl)propan-1-amine] | 100 to 500 nM
CNCCC(Oc1cccc(C(=O)NCc2ccccn2)c1)c1cccs1 (centres unmarked) [Example 7, 3-(3-(Methylamino)-1-(thiophen-2-yl)propoxy)-N-(pyridin-2-ylmethyl)benzamide] | ≥ 3000 nM
CNCCC(Oc1cccc(C(=O)Nc2cccnc2)c1)c1cccs1 (centres unmarked) [Example 8, 3-(3-(Methylamino)-1-(thiophen-2-yl)propoxy)-N-(pyridin-3-yl)benzamide] | 500 to 3000 nM
CNCCC(Oc1cccc(C(=O)Nc2cccc(-c3nnc(C)o3)c2)c1)c1cccs1 (centres unmarked) [Example 9, N-(3-(5-methyl-1,3,4-oxadiazol-2-yl)phenyl)-3-(3-(methylamino)-1-(thiophen-2-yl)propoxy)benzamide] | 500 to 3000 nM
CNCCC(Oc1cccc(C(=O)NCc2ccccc2)c1)c1cccs1 (centres unmarked) [Example 10, N-benzyl-3-(3-(methylamino)-1-(thiophen-2-yl)propoxy)benzamide] | 500 to 3000 nM
CNCCC(Oc1cccc(C(=O)Nc2ccccc2CN(C)C)c1)c1cccs1 (centres unmarked) [Example 11, N-(2-((dimethylamino)methyl)phenyl)-3-(3-(methylamino)-1-(thiophen-2-yl)propoxy)benzamide] | 500 to 3000 nM
CNCCC(Oc1cccc(C(=O)Nc2ccccc2N(C)C)c1)c1cccs1 (centres unmarked) [Example 12, N-(2-(dimethylamino)phenyl)-3-(3-(methylamino)-1-(thiophen-2-yl)propoxy)benzamide] | 500 to 3000 nM
CNCCC(Oc1cccc(C(=O)NC)c1)c1ccccc1 (centres unmarked) [Example 16, N-methyl-3-(3-(methylamino)-1-phenylpropoxy)benzamide] | ≥ 3000 nM
CCNC(=O)c1cccc(OC(CCNC)c2ccccc2)c1 (centres unmarked) [Example 19, N-ethyl-3-(3-(methylamino)-1-phenylpropoxy)benzamide] | ≥ 3000 nM
CCNc1ccc(NC(=O)c2cccc(OC(CCNC)c3ccccc3)c2)cn1 (centres unmarked) [Example 21, N-(6-(ethylamino)pyridin-3-yl)-3-(3-(methylamino)-1-phenylpropoxy)benzamide] | ≥ 3000 nM
CNCCC(Oc1cccc(N(C)C(=O)c2ccccc2)c1)c1ccccc1 (centres unmarked) [Example 23, N-methyl-N-(3-(3-(methylamino)-1-phenylpropoxy)phenyl) benzamide] | ≥ 3000 nM
CNCCC(Oc1cccc(N(C)C(C)=O)c1)c1ccccc1 (centres unmarked) [Example 24, N-methyl-N-(3-(3-(methylamino)-1-phenylpropoxy)phenyl)acetamide] | ≥ 3000 nM
CCCC(=O)N(C)c1cccc(OC(CCNC)c2ccccc2)c1 (centres unmarked) [Example 25, N-methyl-N-(3-(3-(methylamino)-1-phenylpropoxy)phenyl)butyramide] | ≥ 3000 nM
CNCCC(Oc1cccc(N(C)C(=O)c2cccnc2)c1)c1ccccc1 (centres unmarked) [Example 26, N-methyl-N-(3-(3-(methylamino)-1-phenylpropoxy)phenyl)nicotinamide] | ≥ 3000 nM
CCNc1ncc(C(=O)N(C)c2cccc(OC(CCNC)c3ccccc3)c2)c(N2CCCC2)n1 (centres unmarked) [Example 29, 2-(Ethylamino)-N-methyl-N-(3-(3-(methylamino)-1-phenylpropoxy)phenyl)-4-(pyrrolidin-1-yl)pyrimidine-5-carboxamide] | ≥ 3000 nM
CCNc1ncc(C(=O)N(C)c2cccc(OC(CCNC)c3cccs3)c2)c(N2CCCC2)n1 (centres unmarked) [Example 30, 2-(Ethylamino)-N-methyl-N-(3-(3-(methylamino)-1-(thiophen-2-yl)propoxy)phenyl)-4-(pyrrolidin-1-yl)pyrimidine-5-carboxamide] | 500 to 3000 nM
CNCCC(OCc1cccc(N(C)C(=O)c2ccccc2)c1)c1ccccc1 (centres unmarked) [Example 31, N-methyl-N-(3-((3-(methylamino)-1-phenylpropoxy)methyl)phenyl)benzamide] | ≥ 3000 nM
CNCCC(OCc1cccc(N(C)C(=O)c2cccnc2)c1)c1ccccc1 (centres unmarked) [Example 32, N-methyl-N-(3-((3-(methylamino)-1-phenylpropoxy)methyl)phenyl)nicotinamide] | ≥ 3000 nM

Structure (SMILES) | Ki
CNCCC(OCc1cccc(N(C)C(=O)c2cnc(OC)nc2)c1)c1ccccc1 (centres unmarked) [Example 33, 2-Methoxy-N-methyl-N-(3-((3-(methylamino)-1-phenylpropoxy)methyl)phenyl)pyrimidine-5-carboxamide] | ≥ 3000 nM
CNCCC(OCc1cccc(N(C)C(=O)c2cncnc2)c1)c1ccccc1 (centres unmarked) [Example 34, N-methyl-N-(3-((3-(methylamino)-1-phenylpropoxy)methyl)phenyl)pyrimidine-5-carboxamide] | ≥ 3000 nM
CNCCC(OCc1cccc(N(C)C(=O)c2cnc(SC)nc2)c1)c1ccccc1 (centres unmarked) [Example 35, N-methyl-N-(3-((3-(methylamino)-1-phenylpropoxy)methyl)phenyl)-2-(methylthio)pyrimidine-5-carboxamide] | ≥ 3000 nM
CNCCC(OCc1cccc(N(C)C(=O)c2ccccn2)c1)c1ccccc1 (centres unmarked) [Example 36, N-methyl-N-(3-((3-(methylamino)-1-phenylpropoxy)methyl)phenyl)picolinamide] | ≥ 3000 nM
CCNc1ncc(C(=O)N(C)c2cccc(COC(CCNC)c3ccccc3)c2)c(N2CCCC2)n1 (centres unmarked) [Example 37, 2-(Ethylamino)-N-methyl-N-(3-((3-(methylamino)-1-phenylpropoxy)methyl)phenyl)-4-(pyrrolidin-1-yl)pyrimidine-5-carboxamide] | 500 to 3000 nM
CNCCC(OCc1cccc(NC(=O)c2cccnc2)c1)c1ccccc1 (centres unmarked) [Example 40, N-(3-((3-(methylamino)-1-phenylpropoxy)methyl)phenyl)nicotinamide] | ≥ 3000 nM
CNCCC(OCc1cccc(NC(=O)c2cncnc2)c1)c1ccccc1 (centres unmarked) [Example 42, N-(3-((3-(methylamino)-1-phenylpropoxy)methyl)phenyl)pyrimidine-5-carboxamide] | ≥ 3000 nM
CNCCC(OCc1cccc(NC(=O)c2cnc(SC)nc2)c1)c1ccccc1 (centres unmarked) [Example 44, N-(3-((3-(methylamino)-1-phenylpropoxy)methyl)phenyl)-2-(methylthio)pyrimidine-5-carboxamide] | ≥ 3000 nM
CCNc1ncc(C(=O)Nc2cccc(COC(CCNC)c3ccccc3)c2)c(N2CCCC2)n1 (centres unmarked) [Example 45, 2-(Ethylamino)-N-(3-((3-(methylamino)-1-phenylpropoxy)methyl)phenyl)-4-(pyrrolidin-1-yl)pyrimidine-5-carboxamide] | 500 to 3000 nM
CNCCC(OCc1cccc(NC(=O)c2ccccc2N(C)C)c1)c1cccs1 (centres unmarked) [Example 47, 2-(Dimethylamino)-N-(3-((3-(methylamino)-1-(thiophen-2-yl)propoxy)methyl)phenyl)benzamide] | ≥ 3000 nM
CCNc1ncc(C(=O)Nc2cccc(COC(CCNC)c3cccs3)c2)c(N2CCCC2)n1 (centres unmarked) [Example 49, 2-(Ethylamino)-N-(3-((3-(methylamino)-1-(thiophen-2-yl)propoxy)methyl)phenyl)-4-(pyrrolidin-1-yl)pyrimidine-5-carboxamide] | 500 to 3000 nM
CCNc1ncc(C(=O)Nc2cccc(OC(CCNC)c3cccs3)c2)c(N2CCCC2)n1 (centres unmarked) [Example 51, 2-(Ethylamino)-N-(3-(3-(methylamino)-1-(thiophen-2-yl)propoxy)phenyl)-4-(pyrrolidin-1-yl)pyrimidine-5-carboxamide] | 500 to 3000 nM
CNCCC(OCc1cccc(NCc2ccccc2)c1)c1ccccc1 (centres unmarked) [Example 52, N-benzyl-3-((3-(methylamino)-1-phenylpropoxy)methyl)aniline] | ≥ 3000 nM
CNCCC(OCc1cccc(NCc2cncnc2)c1)c1ccccc1 (centres unmarked) [Example 53, 3-((3-(Methylamino)-1-phenylpropoxy)methyl)-N-(pyrimidin-5-ylmethyl)aniline] | ≥ 3000 nM
CN(C)CCC(OCc1cccc(NC(=O)c2ccccc2)c1)c1cccs1 (centres unmarked) [Example 54, N-(3-((3-(dimethylamino)-1-(thiophen-2-yl)propoxy)methyl)phenyl) benzamide] | ≥ 3000 nM
CN(C)CCC(OCc1cccc(NC(=O)c2ccccc2N(C)C)c1)c1cccs1 (centres unmarked) [Example 55, 2-(Dimethylamino)-N-(3-((3-(dimethylamino)-1-(thiophen-2-yl)propoxy)methyl)phenyl)benzamide] | ≥ 3000 nM
CCN(Cc1cccc(OC(CCNC)c2cccs2)c1)C(=O)c1ccccc1 (centres unmarked) [Example 56, N-ethyl-N-(3-(3-(methylamino)-1-(thiophen-2-yl)propoxy)benzyl) benzamide] | ≥ 3000 nM
CNCCC(OCc1cccc(N(Cc2ccccc2)C(C)=O)c1)c1ccccc1 (centres unmarked) [Example 57, N-benzyl-N-(3-((3-(methylamino)-1-phenylpropoxy)methyl)phenyl) acetamide] | ≥ 3000 nM
CNCCC(OCc1cccc(Nc2ncccn2)c1)c1ccccc1 (centres unmarked) [Example 59, N-(3-((3-(methylamino)-1-phenylpropoxy)methyl)phenyl)pyrimidin-2-amine] | ≥ 3000 nM
CCNc1ncc(C(=O)N(C)c2cccc(OC(CCNC)c3ccccc3)c2)cn1 (centres unmarked) [Example 60, 2-(Ethylamino)-N-methyl-N-(3-(3-(methylamino)-1-phenylpropoxy)phenyl)pyrimidine-5-carboxamide] | ≥ 3000 nM
